The values that follow come from patent US5571820A, “Heterocyclic compound” (Taisho Pharmaceutical Co., Ltd., priority 1992, dated 1996).

This data set is described as follows: Mouse single administration (acute toxicity). To be noted: single oral administration. The data set is classed as in vivo. From the text:
Toxicity of the compound represented by formula (1) which is the effective ingredient of the pharmaceutical composition of the present invention was examined in terms of toxicity by mouse single administration (acute toxicity).

SMILES strings stand for the structures.

Turning to `CC(C)n1c(=O)c(C(=O)N[C@H]2C[C@H]3CC[C@@H](C2)N3C)cc2ccccc21` [Compound 1, endo-N-(8-methyl-8-azabicyclo[3.2.1]oct-3-yl)-1-isopropyl-2(1H)-quinolone-3-carboxamide], the minimum lethal dose entry is “more than 125 mg/kg”.
